Drawing on patent publication US12162858B2, “Quinoline derivatives as inhibitors of AXL/MER RTK and CSF1R” (QURIENT CO., LTD., priority 2018, dated 2024), this text covers inhibition and IC50 for 12 compounds.

Assay [1] has as its target T1, CSF1R (Homo sapiens, UniProt P07333). In words: KINOMEscan competition binding assay for CSF1R. On the set-up: DNA tag for qPCR (not a peptide); host or cells: E. coli/T7 phage or HEK-293. To be noted: @ 0.1 uM. In short, it runs like this:
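Values are either % inhibition at 0.1 uM, relative to DMSO (100% Ctrl) and a control compound (0% Ctrl), or Kd from an 11-point 3-fold series fitted with Hill slope −1. DNA-tagged kinase binds immobilized ligand beads with compound for 1 h at room temperature, and eluted kinase is measured by qPCR.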

Assay [2] concerns the target T1, CSF1R. The assay can be described thus: Cellular CSF1R inhibition ELISA (p-CSF1R, M-CSF-induced) using THP-1 cells. On the set-up: THP-1 cells act as a model for human monocytes; endogenous in cells; host or cells: THP-1. The format is cell-based. In a few lines:
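THP-1 cells (2×10^5/well, RPMI/10% FBS) were treated with compound, 10 doses in 3-fold steps, for 24 h at 37 °C in 0.2% DMSO final. They were then stimulated 5 min with human M-CSF (10 ng/ml final) and lysed. p-CSF1R was read by sandwich ELISA (HRP/TMB), with a sigmoidal dose-response fit.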
A general note: An ELISA detects its analyte on a solid surface through an enzyme-linked reagent.

Setting [3] is: read-out: CSF1R kinase binding activity, Percent (%) inhibition.
Where [4] appears, read: read-out: CSF1R kinase binding activity, Range.

SMILES strings stand for the structures. Read-outs that look alike come from different tables or passages of the source.

T1 sequence (P07333 20-972): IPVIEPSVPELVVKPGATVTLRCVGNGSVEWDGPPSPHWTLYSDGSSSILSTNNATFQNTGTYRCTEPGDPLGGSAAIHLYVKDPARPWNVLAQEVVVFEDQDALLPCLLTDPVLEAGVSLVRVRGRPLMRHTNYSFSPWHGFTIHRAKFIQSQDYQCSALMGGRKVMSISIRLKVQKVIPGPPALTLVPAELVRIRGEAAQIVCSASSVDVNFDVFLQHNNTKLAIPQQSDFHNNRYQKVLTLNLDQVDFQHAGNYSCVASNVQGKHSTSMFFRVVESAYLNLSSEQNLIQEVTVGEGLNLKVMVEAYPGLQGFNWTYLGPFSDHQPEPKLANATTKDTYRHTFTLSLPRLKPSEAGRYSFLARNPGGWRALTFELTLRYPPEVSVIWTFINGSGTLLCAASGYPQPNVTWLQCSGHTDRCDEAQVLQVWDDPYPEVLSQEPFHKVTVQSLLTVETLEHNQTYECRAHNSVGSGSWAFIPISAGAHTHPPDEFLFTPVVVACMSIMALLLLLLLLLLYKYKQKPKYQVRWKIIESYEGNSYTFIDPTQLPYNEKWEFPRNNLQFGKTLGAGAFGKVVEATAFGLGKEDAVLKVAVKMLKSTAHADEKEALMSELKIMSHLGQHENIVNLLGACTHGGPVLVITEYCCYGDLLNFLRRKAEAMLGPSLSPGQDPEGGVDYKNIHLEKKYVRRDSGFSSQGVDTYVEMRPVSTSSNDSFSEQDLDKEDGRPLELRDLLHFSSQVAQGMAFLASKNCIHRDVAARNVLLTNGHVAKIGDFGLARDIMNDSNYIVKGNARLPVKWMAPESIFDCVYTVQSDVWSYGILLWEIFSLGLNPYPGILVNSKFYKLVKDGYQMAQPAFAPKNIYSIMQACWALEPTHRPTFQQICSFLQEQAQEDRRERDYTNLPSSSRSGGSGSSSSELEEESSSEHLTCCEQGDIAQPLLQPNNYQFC

As to `CNCCn1cc(OCC(F)(F)F)c(C(=O)Nc2ccc(Oc3ccnc4cc(OC)c(OC)cc34)cc2F)n1` [Compound 154], the figures for the inhibition at 0.1 µM at CSF1R [1] (setting [3]) and on CSF1R [1] (setting [4]) were 47% and < 50%, respectively. The IC50 on CSF1R [2] was ≥ 1 µM.

Take `CNCCn1cc(OCC(F)(F)F)c(C(=O)Nc2ccc(Oc3ccnc4cc(OC)c(OC)cc34)c(F)c2)n1` [Compound 155]: the inhibition at 0.1 µM on CSF1R [1] (setting [3]) was 22%; at CSF1R [1] (setting [4]), < 50%. The IC50 on CSF1R [2] was ≥ 1 µM.

Turning to `CNCCn1cc(OCC(F)(F)F)c(C(=O)Nc2ccc(Oc3ccnc4cc(OC)c(OC)cc34)c(C)c2)n1` [Compound 156], the inhibition at 0.1 µM on CSF1R [1] (setting [3]) was 49%; at CSF1R [1] (setting [4]), < 50%. The IC50 against CSF1R [2] is ≥ 1 µM.

`COc1cc2nccc(Oc3ccc(NC(=O)c4nn(C5CCN(C)C5)cc4OCC(F)(F)F)nn3)c2cc1OC` (stereo not drawn) [Compound 157]: the inhibition at 0.1 µM at CSF1R [1] (setting [3]) was 81%; on CSF1R [1] (setting [4]) it was ≥ 80%. This compound came in with an IC50 against CSF1R [2] of 0.5 to 1 µM.

In the case of `CCCn1cc(NCCC(F)(F)F)c(C(=O)Nc2ccc(Oc3ccnc4cc(OC)c(OC)cc34)cn2)n1` [Compound 158], the inhibition at 0.1 µM on CSF1R [1] (setting [3]) is 91%; at CSF1R [1] (setting [4]), ≥ 80%. Besides, on CSF1R [2], the IC50 was < 0.5 µM.

`CCCn1cc(OCC2CNC2)c(C(=O)Nc2ccc(Oc3ccnc4cc(OC)c(OC)cc34)cn2)n1` [Compound 159]: the inhibition at 0.1 µM on CSF1R [1] (setting [3]) is 64%; on CSF1R [1] (setting [4]), 50 to 80%. Besides, the IC50 against CSF1R [2] is ≥ 1 µM.

With `CNCCOc1cn(C2CC2)nc1C(=O)Nc1ccc(Oc2ccnc3cc(OC)c(OC)cc23)nn1` [Compound 160], the inhibition at 0.1 µM on CSF1R [1] (setting [3]) is 25%; on CSF1R [1] (setting [4]), < 50%. On CSF1R [2], the IC50 is ≥ 1 µM.

For the compound `COc1cc2nccc(Oc3ccc(NC(=O)c4nn(C5CC5)cc4OCC4COC4)nn3)c2cc1OC` [Compound 161], the inhibition at 0.1 µM on CSF1R [1] (setting [3]) is 14%; at CSF1R [1] (setting [4]), < 50%. For the same compound, the IC50 at CSF1R [2] was ≥ 1 µM.

In the case of `COc1cc2nccc(Oc3ccc(NC(=O)c4nn(C5CC5)cc4OCC(F)F)nn3)c2cc1OC` [Compound 162], the inhibition at 0.1 µM on CSF1R [1] (setting [3]) is 91%; on CSF1R [1] (setting [4]), ≥ 80%. Further, the IC50 on CSF1R [2] is < 0.5 µM.

With `COc1cc2nccc(Oc3ccc(NC(=O)c4nn(CC(C)O)cc4OCC4CCC4)nc3)c2cc1OC` (stereo not drawn) [Compound 163], the inhibition at 0.1 µM was 93% at CSF1R [1] (setting [3]) and ≥ 80% at CSF1R [1] (setting [4]). This compound also had a half-inhibitory concentration (IC50) on CSF1R [2] of 0.5 to 1 µM.

For `CCCn1cc(OCC2CCOCC2)c(C(=O)Nc2ccc(Oc3ccnc4cc(OC)c(OC)cc34)cn2)n1` [Compound 164], the inhibition at 0.1 µM was 73% on CSF1R [1] (setting [3]) and 50 to 80% on CSF1R [1] (setting [4]). On CSF1R [2], the IC50 was ≥ 1 µM.

For the compound `CCCn1cc(OCCN(C)C)c(C(=O)Nc2ccc(Oc3ccnc4cc(OC)c(OC)cc34)c(F)c2)n1` [Compound 165], the inhibition at 0.1 µM on CSF1R [1] (setting [3]) is 5%; at CSF1R [1] (setting [4]), < 50%. Also, the IC50 on CSF1R [2] is ≥ 1 µM.

A word on the IC50: it is the concentration that inhibits the measured activity by half. A low value points to higher potency.
